We go through 25 compounds from patent US6410533B1, “Antibacterial compounds” (Genzyme Corporation, priority 2000, dated 2002).

Structures are written as SMILES. Values after ≈ are worked out from the molar mass of the structure shown. Read-outs that look alike come from different tables or passages of the source. Some results are limits rather than exact numbers.

As usually defined, the IC50 is the point on the concentration scale where inhibition reaches its midpoint. A lower IC50 goes with inhibition by little substance. A word on the MIC: it is the lowest concentration that inhibits growth of the organism.

Experiment [1] relates to methicillin-resistant Staphylococcus aureus (ATCC 33591). Description: In vivo mouse intraperitoneal infection, mortality and % survivors over 7 days. Particulars: MRSA ATCC 33591 i.p., ICR mice; for In Vivo, double dose (% of mice rescued): 1 and 5 h post inoculation; for In Vivo, single dose (% of mice rescued): single dose 1 h post inoculation. In short, it runs like this:
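Survival and mortality were scored for 7 days after i.p. challenge of 20 g male ICR mice (n=10) with an LD90-100 inoculum (2-3×10^7 CFU/mouse) of MRSA ATCC 33591 in 5% mucin. Treatment was subcutaneous in 1% cremophore EL/saline, either once at 1 h or twice at 1 h and 5 h.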

The test system of experiment [2] is Staphylococcus aureus bacteria (ATCC 9604 SV). Description: IC50 determination, growth inhibition by turbidity at 550 nm. It counts as cell-based. The following applies: Staphylococcus aureus ATCC 9604 SV, turbidity at 550 nm after 3-5 h at 37° C. Here is the method:
Minimal inhibitory concentrations (MICs) for Staphylococcus aureus bacteria (ATCC 9604 SV) were determined by broth microdilution methodology following National Committee for Clinical Laboratory Standards. In the MIC determinations, the compounds were incorporated into Mueller-Hinton broth (Becton Dickinson Microbiology systems, Cockeyville, Md.) at a series of concentrations. After the test organism was grown overnight in TB broth, the broths were adjusted to the turbidity equivalent to 0.05 McFarland standard. The suspensions were diluted twenty-fold into the broth containing the compounds. […] In the IC50 determination, the method was modified to allow the rapid growth of the organisms. The inoculum suspensions were adjusted to 0.1 McFarland standard and then diluted two-fold into the wells containing TB broth and the compounds. After three to five hours incubation at 37° C., the turbidity was measured at 550 nm and inhibitory activity was defined as the concentration of antimicrobial agent that inhibits 50% growth of the organism in the microdilution wells.

For experiment [3] the test system is unchanged. Description: Minimal inhibitory concentration (MIC), broth microdilution. It counts as cell-based. The following applies: 24 h at 37° C. In short, it runs like this: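 MIC: broth microdilution per NCCLS in Mueller-Hinton broth; overnight culture adjusted to 0.05 McFarland and diluted twenty-fold into compound-containing broth. IC50: inoculum at 0.1 McFarland diluted two-fold into TB broth with compound, 3–5 h at 37° C. Turbidity at 550 nm; IC50 is the concentration giving 50% growth inhibition.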
On the technique in general: In broth dilution the organism is exposed to a series of concentrations in liquid medium.

The mark [4] stands for this setting: ATCC9604, Staphylococcus aureus ATCC 9604 SV, read-out: MIC.
Where [5] appears, read: Staphylococcus aureus ATCC 9604 SV.

With `O=C1CC(c2ccccc2)=NN1c1cc(Cl)cc(Cl)c1` [Compound 1, 2-(3,5-Dichloro-phenyl)-5-phenyl-2,4-dihydro-pyrazol-3-one], the “In Vivo, double dose (% of mice rescued)” value is 0% @ 2 × 2 mg/kg in experiment [1] (2 × 2 mg/kg s.c.) and 25% @ 2 × 20 mg/kg in experiment [1] (2 × 20 mg/kg s.c.). This compound returned an IC50 in experiment [2] (ATCC9604) of 540 nM. The minimum inhibitory concentration (MIC) in experiment [3] (setting [4]) was 0.122 µg/mL (≈ 0.4 µM).
With `O=C1CC(c2ccccc2)=NN1c1ccc(Cl)c(Cl)c1` [Compound 2], the results for the “In Vivo, double dose (% of mice rescued)” value in experiment [1] (2 × 2 mg/kg s.c.) and in experiment [1] (2 × 20 mg/kg s.c.) were 0% @ 2 × 2 mg/kg and 0% @ 2 × 20 mg/kg, respectively. Also, the concentration for half-maximal inhibition (IC50) in experiment [2] was determined as 449 nM. In addition, the minimal inhibitory concentration (MIC) in experiment [3] (setting [5]) was found to be 1.91 µg/mL (≈ 6.26 µM).
Turning to `COc1ccc(C=C2C(=O)N(c3cc(Cl)cc(Cl)c3)N=C2c2ccccc2)cc1` [Compound 3, 2-(3,5-Dichloro-phenyl)-4-(4-methoxy-benzylidene)-5-phenyl-2,4-dihydro-pyrazol-3-one], the figures for the “In Vivo, double dose (% of mice rescued)” value in experiment [1] (2 × 2 mg/kg s.c.) and in experiment [1] (2 × 20 mg/kg s.c.) were 25% @ 2 × 2 mg/kg and 25% @ 2 × 20 mg/kg, respectively. For the same compound, the IC50 in experiment [2] (ATCC9604) worked out at 985 nM. Moreover, the minimum inhibitory concentration (MIC) in experiment [3] (setting [4]) came out at 1.3 µg/mL (≈ 3.07 µM).
As for `CC(C)(C)c1cc(NC(=O)Nc2cc(C(F)(F)F)cc(C(F)(F)F)c2)n(-c2ccc(C(F)(F)F)cc2)n1` [Compound 72], the “In Vivo, single dose (% of mice rescued)” value in experiment [1] (2 mg/kg s.c.) turned out to be 0% @ 2 mg/kg; in experiment [1] (20 mg/kg s.c.), 0% @ 20 mg/kg. Besides, the half-maximal inhibitory concentration (IC50) in experiment [2] came to 58 nM. This compound gave an MIC in experiment [3] (setting [5]) of 0.808 µg/mL (≈ 1.5 µM).
Consider `O=C(Nc1cc(C(F)(F)F)cc(C(F)(F)F)c1)Nc1cc(-c2ccccc2)nn1-c1ccc(C(F)(F)F)cc1` [Compound 76, 1-(3,5-Bis-trifluoromethyl-phenyl)-3-[5-phenyl-2-(4-trifluoromethyl-phenyl)-2H-pyrazol-3-yl]-urea], for which the “In Vivo, single dose (% of mice rescued)” value in experiment [1] (2 mg/kg s.c.) worked out at 0% @ 2 mg/kg; in experiment [1] (20 mg/kg s.c.), 0% @ 20 mg/kg. In experiment [2] (ATCC9604), this compound registered an IC50 of 54 nM. Further, the minimum inhibitory concentration (MIC) in experiment [3] (setting [4]) was below 0.838 µg/mL.
Turning to `O=C(Nc1cc(Cl)cc(Cl)c1)Nc1cc(-c2ccccc2)nn1-c1ccc(C(F)(F)F)cc1` [Compound 77], the “In Vivo, single dose (% of mice rescued)” value in experiment [1] (2 mg/kg s.c.) is on record as 0% @ 2 mg/kg; in experiment [1] (20 mg/kg s.c.), 12.5% @ 20 mg/kg. The IC50 in experiment [2] was 81 nM. Moreover, the MIC in experiment [3] (setting [5]) turned out to be 12.3 µg/mL (≈ 25 µM).
`O=C(Nc1cc(C(F)(F)F)cc(C(F)(F)F)c1)Nc1cc(-c2cccs2)nn1-c1ccc(C(F)(F)F)cc1` [Compound 83]: the “In Vivo, single dose (% of mice rescued)” value in experiment [1] (2 mg/kg s.c.) worked out at 0% @ 2 mg/kg; in experiment [1] (20 mg/kg s.c.), 25% @ 20 mg/kg. The compound also showed an IC50 in experiment [2] of 71 nM. This compound displayed an MIC in experiment [3] (setting [5]) of 0.847 µg/mL (≈ 1.5 µM).
The like results for `O=C(Nc1cc(Cl)cc(Cl)c1)Nc1cc(-c2cccs2)nn1-c1ccc(C(F)(F)F)cc1` [Compound 84] were, in that order, 0% @ 2 mg/kg, 0% @ 20 mg/kg, 134 nM and 6.22 µg/mL (≈ 12.5 µM).
On to `O=C(Nc1cc(C(F)(F)F)cc(C(F)(F)F)c1)Nc1cc(-c2cccnc2)nn1-c1ccc(C(F)(F)F)cc1` [Compound 86], for which the “In Vivo, single dose (% of mice rescued)” value in experiment [1] (2 mg/kg s.c.) was found to be 0% @ 2 mg/kg; in experiment [1] (20 mg/kg s.c.) it was 0% @ 20 mg/kg. This compound also yielded a half-maximal inhibitory concentration (IC50) in experiment [2] of 205 nM. The compound further had a minimum inhibitory concentration (MIC) in experiment [3] (setting [5]) of 1.68 µg/mL (≈ 3 µM).
Take `O=C(Nc1cc(C(F)(F)F)cc(C(F)(F)F)c1)Nc1cc(-c2ccncc2)nn1-c1ccc(C(F)(F)F)cc1` [Compound 87]: the “In Vivo, single dose (% of mice rescued)” value in experiment [1] (2 mg/kg s.c.) came to 25% @ 2 mg/kg; in experiment [1] (20 mg/kg s.c.), 25% @ 20 mg/kg. The “In Vivo, double dose (% of mice rescued)” value amounted to 0% @ 2 × 2 mg/kg in experiment [1] (2 × 2 mg/kg s.c.) and 17% @ 2 × 20 mg/kg in experiment [1] (2 × 20 mg/kg s.c.). The compound also had an IC50 in experiment [2] of 214 nM. In experiment [3] (setting [5]), the MIC came out at 1.68 µg/mL (≈ 3 µM).
Turning to `O=C(Nc1cc(C(F)(F)F)cc(C(F)(F)F)c1)Nc1cc(CN2CCOCC2)nn1-c1ccc(C(F)(F)F)cc1` [Compound 89], the “In Vivo, single dose (% of mice rescued)” value in experiment [1] (2 mg/kg s.c.) was 0% @ 2 mg/kg; in experiment [1] (20 mg/kg s.c.) it was 0% @ 20 mg/kg. Moreover, in experiment [2], the half-maximal inhibitory concentration (IC50) was 216 nM. The same compound had an MIC in experiment [3] (setting [5]) above 29.1 µg/mL.
As to `O=C(Nc1cc(Cl)cc(Cl)c1)Nc1cc(-c2ccccc2)nn1-c1ccc(Cl)cc1` [Compound 91], the “In Vivo, single dose (% of mice rescued)” value is on record as 0% @ 2 mg/kg in experiment [1] (2 mg/kg s.c.) and 0% @ 20 mg/kg in experiment [1] (20 mg/kg s.c.). The compound also had a half-inhibitory concentration (IC50) in experiment [2] of 148 nM. The compound also showed an MIC in experiment [3] (setting [5]) above 22.9 µg/mL.
In the case of `O=C(Nc1cc(C(F)(F)F)cc(C(F)(F)F)c1)Nc1ccnn1-c1ccc(Br)cc1` [Compound 92, 1-(3,5-Bis-trifluoromethyl-phenyl)-3-[2-(4-bromo-phenyl)-2H-pyrazol-3-yl]-urea], the “In Vivo, single dose (% of mice rescued)” value worked out at 0% @ 2 mg/kg in experiment [1] (2 mg/kg s.c.) and 0% @ 20 mg/kg in experiment [1] (20 mg/kg s.c.). Further, the IC50 in experiment [2] (ATCC9604) came to 209 nM. Further, in experiment [3] (setting [4]), the MIC is below 0.74 µg/mL.
Take `O=C(Nc1cc(Cl)cc(Cl)c1)Nc1ccnn1-c1ccc(Br)cc1` [Compound 93]: the “In Vivo, single dose (% of mice rescued)” value is on record as 0% @ 2 mg/kg in experiment [1] (2 mg/kg s.c.) and 25% @ 20 mg/kg in experiment [1] (20 mg/kg s.c.). The IC50 in experiment [2] was 138 nM. For the same compound, in experiment [3] (setting [5]), the minimal inhibitory concentration (MIC) was below 0.639 µg/mL.
Regarding `CCOC(=O)c1cnn(-c2ccc(Br)cc2)c1NC(=O)Nc1cc(C(F)(F)F)cc(C(F)(F)F)c1` [Compound 94], the “In Vivo, single dose (% of mice rescued)” value was 0% @ 2 mg/kg in experiment [1] (2 mg/kg s.c.) and 0% @ 20 mg/kg in experiment [1] (20 mg/kg s.c.). In experiment [2], this compound registered a half-inhibitory concentration (IC50) of 261 nM. Moreover, the MIC in experiment [3] (setting [5]) was below 0.848 µg/mL.
In turn, `O=C(Nc1cc(C(F)(F)F)cc(C(F)(F)F)c1)Nc1nc(-c2cc(CO)no2)cs1` [Compound 154] showed an IC50 in experiment [2] of 20100 nM. In experiment [3] (setting [5]), this compound returned an MIC above 22.6 µg/mL.
On to `O=C(Nc1cc(C(F)(F)F)cc(C(F)(F)F)c1)Nc1nc(-c2cccs2)cs1` [Compound 155], for which the IC50 in experiment [2] came out at 259 nM. Moreover, in experiment [3] (setting [5]), the MIC worked out at 1.31 µg/mL (≈ 3 µM).
`O=C(Nc1cc(C(F)(F)F)cc(C(F)(F)F)c1)Nc1nc2ccccc2s1` [Compound 156]: the IC50 in experiment [2] turned out to be 295 nM. The compound also showed a minimum inhibitory concentration (MIC) in experiment [3] (setting [5]) of 1.22 µg/mL (≈ 3.01 µM).
As to `O=C(Nc1ccc(OC(F)F)cc1)Nc1nc(-c2ccc(F)c(F)c2)cs1` [Compound 160], in experiment [2], inhibition was half-maximal at 461 nM (IC50). Moreover, the minimum inhibitory concentration (MIC) in experiment [3] (setting [5]) turned out to be 1.19 µg/mL (≈ 2.99 µM).
For `O=C(Nc1ccc(SC(F)(F)F)cc1)Nc1nc(-c2ccc(F)c(F)c2)cs1` [Compound 161], in experiment [2], the concentration for half-maximal inhibition (IC50) came to 134 nM. Besides, the minimal inhibitory concentration (MIC) in experiment [3] (setting [5]) was below 0.647 µg/mL.
In the case of `O=C(Nc1ccc(F)c(C(F)(F)F)c1)Nc1nc(-c2cccc(F)c2)cs1` [Compound 165], in experiment [2], the IC50 stood at 364 nM. Moreover, the minimum inhibitory concentration (MIC) in experiment [3] (setting [5]) is 2.40 µg/mL (≈ 6.01 µM).
Regarding `Cc1cc(-c2csc(NC(=O)Nc3ccc(F)c(C(F)(F)F)c3)n2)ccc1F` [Compound 169], in experiment [2], the IC50 worked out at 661 nM. In addition, the minimal inhibitory concentration (MIC) in experiment [3] (setting [5]) was above 20.7 µg/mL.
As for `O=C(Nc1nc(-c2ccc(Cl)cc2)cs1)Nc1cc(Cl)c(Cl)cc1Cl` [Compound 170], the IC50 in experiment [2] was 910 nM. Also, in experiment [3] (setting [5]), the minimal inhibitory concentration (MIC) was above 21.7 µg/mL.
Regarding `O=C(NCc1ccc(Cl)c(Cl)c1)Nc1nc(-c2ccc(F)c(F)c2)cs1` [Compound 182], the half-inhibitory concentration (IC50) in experiment [2] is 2850 nM. Besides, in experiment [3] (setting [5]), the MIC was 5.18 µg/mL (≈ 12.5 µM).
Compound `CC(NC(=O)Nc1nc(-c2ccc(Br)cc2)cs1)C(O)c1ccccc1` (stereo not shown) [Compound 183] yielded an IC50 in experiment [2] of 6380 nM. The same compound registered an MIC in experiment [3] (setting [5]) of 10.8 µg/mL (≈ 25 µM).
